According to patent US11918624B2, “Therapeutic composition for use in the treatment of COVID-19 and other cytokine storm associated disorders” (priority 2020, dated 2024):
Ends that are not written are not given here.

Legend:
[1] = target: T1, C5a receptor (Homo sapiens, UniProt P21730); test: C5a-induced Ca++ influx in C5a receptor-expressing U937 cells; format: cell-based
T1 construct: U937 cells bearing the C5a receptor were preincubated with this peptide; endogenous in cells; host or cells: U937 cells, cAMP stimulated
T1 sequence (P21730 1-350): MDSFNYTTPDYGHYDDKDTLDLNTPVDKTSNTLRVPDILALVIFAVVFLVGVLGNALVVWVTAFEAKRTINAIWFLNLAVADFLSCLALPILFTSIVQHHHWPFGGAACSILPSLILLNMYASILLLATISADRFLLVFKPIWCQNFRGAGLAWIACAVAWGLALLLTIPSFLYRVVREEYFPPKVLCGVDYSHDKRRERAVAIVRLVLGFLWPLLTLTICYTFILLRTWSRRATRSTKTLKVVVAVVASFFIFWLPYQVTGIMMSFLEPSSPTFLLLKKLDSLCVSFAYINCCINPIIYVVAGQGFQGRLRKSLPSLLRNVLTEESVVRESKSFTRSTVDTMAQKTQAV
Description: It was shown by its ability to inhibit Ca^++ influx induced by C5a anaphylatoxin in C5a receptor-expressing (cAMP stimulated) U937 cells.
(§1) Particularly, it is shown the IC50 achieved at pM levels. […] In addition, in the membrane bound state the peptide remains active for at least 12 hours. Therefore, it is a very effective C5aR inhibitor.

[2] = target: T2, C5aR (Homo sapiens, UniProt P21730); test: persistence of activity of erythrocyte membrane bound peptide; details: erythrocyte membrane bound state
T2 construct: endogenous in cells; host or cells: 'C5aR bearing cells', not specified
T2 sequence (P21730 1-350): T1 sequence (P21730 1-350)
Description: The activity in vivo, in rat and pig models, is shown in the examples below. Further, it has been shown that the peptide can be delivered in vivo very safely, even at very high concentration. […] In addition, in the membrane bound state, the peptide remains active for at least 12 hours. Therefore, it is a very effective C5aR inhibitor.
as §1

[3] = test system: guinea pig complement; test: antibody dependent complement mediated hemolysis assay; format: biochemical; details: 1 ug/mL peptide added to guinea pig complement, titrated against turkey erythrocytes with hemolysin
Description: The peptides were synthesized by Fmoc solid phase method, purified on C18 reversa phase chromatography, tested by adding each peptide to and screened for complement inhibitory activity, in a simple antibody dependent hemolysis system in which 1 ug/mL of peptides were added to guinea pig complement, and were titrated against turkey erythrocytes mixed with hemolysin, a complement fixing anti-erythrocyte antibody solution. In the presence the peptides, the hemolythic activity of the complement was reduced, and the corresponding dilutions was determined. The inhibition was estimated by a formula: Inhibition (%)=100−(dilution of sample titer*100)/dilution of control

[4] = test system: C5a anaphylatoxin; test: binding of AHB peptide to antisense peptides derived from C5a; details: C5a amino acids 37-43 and 61-74
[5] = target: T3, endothelin receptor (Canis lupus familiaris, UniProt Q5KSU9); test: iv ET-1 injection in dogs pretreated with peptide; format: in vivo
T3 construct: from tissue; host or cells: whole animal (dog), in vivo
T3 sequence (Q5KSU9 21-426): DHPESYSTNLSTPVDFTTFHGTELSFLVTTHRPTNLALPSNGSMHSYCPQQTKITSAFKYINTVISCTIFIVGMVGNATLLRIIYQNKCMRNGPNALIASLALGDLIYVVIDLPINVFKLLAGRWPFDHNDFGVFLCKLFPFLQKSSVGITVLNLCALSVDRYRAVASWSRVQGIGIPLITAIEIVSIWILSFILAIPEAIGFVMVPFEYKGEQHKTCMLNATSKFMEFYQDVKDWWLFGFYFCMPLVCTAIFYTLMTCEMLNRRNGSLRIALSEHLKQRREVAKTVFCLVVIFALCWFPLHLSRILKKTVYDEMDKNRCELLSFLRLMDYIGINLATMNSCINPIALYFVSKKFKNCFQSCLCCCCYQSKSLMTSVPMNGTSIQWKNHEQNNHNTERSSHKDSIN
Description: One of the peptides was subsequently tested in dogs and confirmed its biological effect in vivo. […] The elevated ET-1 level was marked with profound changes in circulation (details to be published elsewhere). However, pretreatment of dogs with 100 ug/kg ETR-P1/fl peptide removed the cardiovascular effects of injected ET-1 peptide from the circulation within 10 min and the measured endothelin level become normal. […] It is known in the previous art and has been patented and the patent expired.

Substance | Hemolysis inhibition (% of maximum) [3] | further results
(LRTWSRRATRSTKTLKVV)8K4K2KV [PR226MAP] | – | concentration of complete inhibition of C5a triggered Ca influx ([1]; FIG. 2): 200 pM; concentration level at which C5a triggered Ca influx is inhibited ([1]; serial dilution): femtomolar concentration levels; IC50 ([1]; serial dilution, FIG. 2, read-out: IC50 of C5a triggered Ca influx): 1 pM; time the peptide remains active [2]: at least 12 hours
APNHLLEVRV [AP1314, APNHLLEVRV] | >80% | –
DDLKQLANGVDRYI [DDL1619, DDLKQLANGVDRYI] | >80% | –
DYGHYDDKDTLDLNTPVD (Complement factor 5a receptor targeting inhibitor DYG2094) [PR10] | – | inhibition of C5a receptor activity / C5a-induced Ca++ influx [1]: did not inhibit the receptor activity; binding to antisense peptides derived from C5a anaphylatoxin [4]: bound to two of its corresponding antisense peptides
ERLGREGVQ [ERL1041, ERLGREGVQ] | >20-40% | –
ESASLRSEETKV [ESA1331, ESASLRSEETKV] | >20-40% | –
GQWKIRAYYENS [GQW1513, GQWKIRAYYENS] | ≤20% | –
HWPFGGAACSILPSLI (Complement factor 5a receptor targeting inhibitor HWP1667) [PR101] | – | inhibition of C5a receptor activity / C5a-induced Ca++ influx [1]: did not affect the C5a-induced Ca^++ influx
IAVHYLDETEQW [IAV1501, IAVHYLDETEQW] | ≤20% | –
KRPQDAKNT [KRP1057, KRPQDAKNT] | >20-40% | –
KYKHSVVKKSDGA (PL12-AHB peptide derived from C5a anaphylatoxin) | – | inhibition of C5a receptor activity / C5a-induced Ca++ influx [1]: not able to inhibit
LHLSVRTLELRP [LHL1431, LHLSVRTLELRP] | >40-60% | –
LNCQRYYGGGGYST [LNC1538, LNCQRYYGGGGYST] | >20-40% | –
LNLCALSVDRYRAVASWSRVI (Endothelin A receptor targeting inhibitor LNL2390) [ETR-P1/fl] | – | measured endothelin level after injected ET-1 ([5]; dogs, pretreatment 100 ug/kg): become normal; time to removal of cardiovascular effects of injected ET-1 ([5]; dogs, pretreatment 100 ug/kg, iv ET-1): ≤ 10 min; decrease of normal baseline level of ET peptide in plasma ([5]; dogs, transient): 30-50%; increase of ET-1 binding capacity of the endothelin receptor ([5]; receptor frozen in inactive conformation): 4 times
LRANISHKDMQLGR (PL61-AHB peptide derived from C5a anaphylatoxin) | – | inhibition of C5a receptor activity / C5a-induced Ca++ influx [1]: not able to inhibit
LRLPYVVREQL [LRL1384, LRLPYVVREQL] | ≤20% | –
LRTWSRRATRSTKTLKVV (Complement factor 5a receptor targeting inhibitor LRT2463) [PR226] | – | biphasic activity on C5a receptor [1]: inhibitor at high concentration and activator as low concentration
LSRKVLLDGV [LSR1099, LSRKVLLDGV] | >20-40% | –
LTAYVVKVFSLA [LTA1309, LTAYVVKVFSLA] | >80% | –
NIFLKDSITTWE [NIF1464, NIFLKDSITTWE] | >40-60% | –
QALPYSTVGNSNL [QAL1363, QALPYSTVGNSNL] | >40-60% | –
QKKIEEIAAKYKHS (PL3-AHB peptide derived from C5a anaphylatoxin) | – | inhibition of C5a receptor activity / C5a-induced Ca++ influx [1]: not able to inhibit
QRSYTVAIA [QRS1008, QRSYTVAIA] | >40-60% | –
RAARISLGPRSIKAFTE (PL37-AHB peptide derived from C5a anaphylatoxin) | – | inhibition of C5a receptor activity / C5a-induced Ca++ influx [1]: not able to inhibit
SDAGLTFTSS [SDA984, SDAGLTFTSS] | >80% | –
SDKKGICVADPFEVT [SDK1606, SDKKGICVADPFEVT] | >80% | –
TAYVVKVFSLAVN [TAY1409, TAYVVKVFSLAVN] | ≤20% | –
VQAERSGIPIVTSPYQI [VQA1857, VQAERSGIPIVTSPYQI] | >80% | –
